# What was measured:
# [1] = system: Hprt +/+ mice; assay: Histopathological analysis of mouse tissues after 6TG
# [2] = system: T cells from Lesch Nyhan syndrome patients and Hprt deficient brothers; conditions: cited from earlier work
# [3] = system: Hprt −/− mice; assay: Biochemical analysis of mouse serum after 6TG; assay type: in vivo; conditions: serum 14 days after treatment
# Experimental: Serum biochemistry parameters analyzed included blood urea nitrogen (BUN), aspartate amino transferase (AST), alanine amino transferase (ALT), creatine kinase (CK), and alkaline phosphatase (AP). The analyses were performed at Tufts University Veterinary Medical Diagnosis Laboratory with the chemical analyser Hitachi 747. Blood was collected from the posterior vena cava of Hprt deficient mice that were either treated with water, 25, 500, or 720 mg/kg 6TG i.p. and wildtype mice administered 25 mg/kg 6TG.
# […] Serum samples taken 14 days after treatment were evaluated for the levels of blood urea nitrogen (BUN), aspartate amino transferase (AST), alanine amino transferase (ALT), creatine kinase (CK) and alkaline phosphatase (AP). Elevated BUN is associated with dehydratation and/or renal insufficiency. Elevated activities of ALT and AST are characteristic for liver damage particularly necrosis, cirrhosis and/or hepatitis and also muscle trauma or myocardial infarction or myositis. Elevated AP is associated mostly with increased bone marrow metabolism and also with hapatocellular damage during hepatitis. CK is predominantly located in muscles and therefore its increased activities are consequence of muscular trauma, myocardial infarction or myopathic disorders.
# [4] = Hprt +/+, 6TG lethal 50-720 mg/kg, 7 mice
# [5] = Hprt +/+, 6TG sublethal 25 mg/kg, 2 mice
smiles,measurement,setting,value
"Nc1nc(S)c2[nH]cnc2n1 [6TG, 2-amino-6-merkaptopurine]","Bone marrow Depletion, severity grade","[1]; Hprt +/+, 25 mg/kg i.p.",3.5 ± 0.5
same,"Bone marrow Depletion, severity grade","[1]; Hprt +/+, 50 mg/kg i.p.",4
same,"Bone marrow Necrosis, severity grade","[1]; Hprt +/+, 50 mg/kg i.p.",3
same,"Gastric epithelium Atrophy, severity grade","[1]; Hprt +/+, 50 mg/kg i.p.",2
same,"Gastric epithelium Necrosis, severity grade","[1]; Hprt +/+, 50 mg/kg i.p.",1
same,"Intestinal epithelium Atrophy, severity grade","[1]; Hprt +/+, 50 mg/kg i.p.",2
same,"Intestinal epithelium Necrosis, severity grade","[1]; Hprt +/+, 50 mg/kg i.p.",1
same,"Liver Atrophy necrosis, severity grade","[1]; Hprt +/+, 50 mg/kg i.p.",3
same,"Spleen Lymphoid depletion, severity grade","[1]; Hprt +/+, 50 mg/kg i.p.",1
same,"Bone marrow Depletion, severity grade","[1]; Hprt +/+, 100 mg/kg i.p.",4
same,"Bone marrow Necrosis, severity grade","[1]; Hprt +/+, 100 mg/kg i.p.",3
same,"Gastric epithelium Atrophy, severity grade","[1]; Hprt +/+, 100 mg/kg i.p.",3
same,"Gastric epithelium Necrosis, severity grade","[1]; Hprt +/+, 100 mg/kg i.p.",3
same,"Intestinal epithelium Atrophy, severity grade","[1]; Hprt +/+, 100 mg/kg i.p.",3
same,"Intestinal epithelium Necrosis, severity grade","[1]; Hprt +/+, 100 mg/kg i.p.",3
same,"Liver Atrophy necrosis, severity grade","[1]; Hprt +/+, 100 mg/kg i.p.",2
same,"Spleen Lymphoid depletion, severity grade","[1]; Hprt +/+, 100 mg/kg i.p.",1
same,"Spleen Necrosis, severity grade","[1]; Hprt +/+, 100 mg/kg i.p.",2
same,"Bone marrow Depletion, severity grade","[1]; Hprt +/+, 150 mg/kg i.p.",4
same,"Bone marrow Necrosis, severity grade","[1]; Hprt +/+, 150 mg/kg i.p.",4
same,"Gastric epithelium Atrophy, severity grade","[1]; Hprt +/+, 150 mg/kg i.p.",1
same,"Gastric epithelium Necrosis, severity grade","[1]; Hprt +/+, 150 mg/kg i.p.",1
same,"Intestinal epithelium Atrophy, severity grade","[1]; Hprt +/+, 150 mg/kg i.p.",1
same,"Intestinal epithelium Necrosis, severity grade","[1]; Hprt +/+, 150 mg/kg i.p.",1
same,"Liver Atrophy necrosis, severity grade","[1]; Hprt +/+, 150 mg/kg i.p.",2
same,"Liver Centrilobular hypertrophy, severity grade","[1]; Hprt +/+, 150 mg/kg i.p.",2
same,"Spleen Lymphoid depletion, severity grade","[1]; Hprt +/+, 150 mg/kg i.p.",2
same,"Spleen Necrosis, severity grade","[1]; Hprt +/+, 150 mg/kg i.p.",2
same,"Bone marrow Depletion, severity grade","[1]; Hprt +/+, 225 mg/kg i.p.",3
same,"Bone marrow Necrosis, severity grade","[1]; Hprt +/+, 225 mg/kg i.p.",3
same,"Gastric epithelium Atrophy, severity grade","[1]; Hprt +/+, 225 mg/kg i.p.",1
same,"Gastric epithelium Necrosis, severity grade","[1]; Hprt +/+, 225 mg/kg i.p.",1
same,"Intestinal epithelium Atrophy, severity grade","[1]; Hprt +/+, 225 mg/kg i.p.",1
same,"Intestinal epithelium Necrosis, severity grade","[1]; Hprt +/+, 225 mg/kg i.p.",1
same,"Liver Atrophy necrosis, severity grade","[1]; Hprt +/+, 225 mg/kg i.p.",2
same,"Liver Centrilobular hypertrophy, severity grade","[1]; Hprt +/+, 225 mg/kg i.p.",1
same,"Liver Fatty change, severity grade","[1]; Hprt +/+, 225 mg/kg i.p.",1
same,"Spleen Lymphoid depletion, severity grade","[1]; Hprt +/+, 225 mg/kg i.p.",3
same,"Spleen Necrosis, severity grade","[1]; Hprt +/+, 225 mg/kg i.p.",4
same,"Bone marrow Depletion, severity grade","[1]; Hprt +/+, 338 mg/kg i.p.",4
same,"Bone marrow Necrosis, severity grade","[1]; Hprt +/+, 338 mg/kg i.p.",3
same,"Gastric epithelium Atrophy, severity grade","[1]; Hprt +/+, 338 mg/kg i.p.",3
same,"Gastric epithelium Necrosis, severity grade","[1]; Hprt +/+, 338 mg/kg i.p.",3
same,"Intestinal epithelium Atrophy, severity grade","[1]; Hprt +/+, 338 mg/kg i.p.",3
same,"Intestinal epithelium Necrosis, severity grade","[1]; Hprt +/+, 338 mg/kg i.p.",3
same,"Liver Atrophy necrosis, severity grade","[1]; Hprt +/+, 338 mg/kg i.p.",1
same,"Liver Centrilobular hypertrophy, severity grade","[1]; Hprt +/+, 338 mg/kg i.p.",2
same,"Liver Fatty change, severity grade","[1]; Hprt +/+, 338 mg/kg i.p.",2
same,"Spleen Lymphoid depletion, severity grade","[1]; Hprt +/+, 338 mg/kg i.p.",2
same,"Spleen Necrosis, severity grade","[1]; Hprt +/+, 338 mg/kg i.p.",1
same,"Bone marrow Depletion, severity grade","[1]; Hprt +/+, 507 mg/kg i.p.",3
same,"Bone marrow Necrosis, severity grade","[1]; Hprt +/+, 507 mg/kg i.p.",4
same,"Gastric epithelium Atrophy, severity grade","[1]; Hprt +/+, 507 mg/kg i.p.",1
same,"Gastric epithelium Necrosis, severity grade","[1]; Hprt +/+, 507 mg/kg i.p.",1
same,"Intestinal epithelium Atrophy, severity grade","[1]; Hprt +/+, 507 mg/kg i.p.",1
same,"Intestinal epithelium Necrosis, severity grade","[1]; Hprt +/+, 507 mg/kg i.p.",1
same,"Liver Atrophy necrosis, severity grade","[1]; Hprt +/+, 507 mg/kg i.p.",1
same,"Liver Centrilobular hypertrophy, severity grade","[1]; Hprt +/+, 507 mg/kg i.p.",1
same,"Liver Fatty change, severity grade","[1]; Hprt +/+, 507 mg/kg i.p.",2
same,"Spleen Lymphoid depletion, severity grade","[1]; Hprt +/+, 507 mg/kg i.p.",1
same,"Spleen Necrosis, severity grade","[1]; Hprt +/+, 507 mg/kg i.p.",2
same,"Bone marrow Depletion, severity grade","[1]; Hprt +/+, 720 mg/kg i.p.",4
same,"Bone marrow Necrosis, severity grade","[1]; Hprt +/+, 720 mg/kg i.p.",4
same,"Gastric epithelium Atrophy, severity grade","[1]; Hprt +/+, 720 mg/kg i.p.",1
same,"Gastric epithelium Necrosis, severity grade","[1]; Hprt +/+, 720 mg/kg i.p.",1
same,"Intestinal epithelium Atrophy, severity grade","[1]; Hprt +/+, 720 mg/kg i.p.",1
same,"Intestinal epithelium Necrosis, severity grade","[1]; Hprt +/+, 720 mg/kg i.p.",1
same,"Liver Atrophy necrosis, severity grade","[1]; Hprt +/+, 720 mg/kg i.p.",2
same,"Liver Centrilobular hypertrophy, severity grade","[1]; Hprt +/+, 720 mg/kg i.p.",1
same,"Spleen Lymphoid depletion, severity grade","[1]; Hprt +/+, 720 mg/kg i.p.",3
same,"Spleen Necrosis, severity grade","[1]; Hprt +/+, 720 mg/kg i.p.",3
same,"Bone marrow Depletion, average of lesion severity grade",[1]; [4],3.7 ± 0.5
same,"Bone marrow Necrosis, average of lesion severity grade",[1]; [4],3.4 ± 0.5
same,"Gastric epithelium Atrophy, average of lesion severity grade",[1]; [4],1.7 ± 0.9
same,"Gastric epithelium Necrosis, average of lesion severity grade",[1]; [4],1.6 ± 0.9
same,"Intestinal epithelium Atrophy, average of lesion severity grade",[1]; [4],1.7 ± 0.9
same,"Intestinal epithelium Necrosis, average of lesion severity grade",[1]; [4],1.6 ± 1.0
same,"Liver Atrophy necrosis, average of lesion severity grade",[1]; [4],1.9 ± 0.7
same,"Liver Centrilobular hypertrophy, average of lesion severity grade",[1]; [4],1.0 ± 0.8
same,"Liver Fatty change, average of lesion severity grade",[1]; [4],0.7 ± 0.9
same,"Spleen Lymphoid depletion, average of lesion severity grade",[1]; [4],1.9 ± 0.9
same,"Spleen Necrosis, average of lesion severity grade",[1]; [4],2.0 ± 1.3
same,"Bone marrow Depletion, average of lesion severity grade",[1]; [5],3.5 ± 0.5
same,"Bone marrow Necrosis, average of lesion severity grade",[1]; [5],0.5 ± 0.5
same,"Liver Atrophy necrosis, average of lesion severity grade",[1]; [5],2.5 ± 0.5
same,starting dose of liver lesions (necrosis and atrophy of hepatocytes),[1]; Hprt wildtype mice,25 mg/kg
same,lowest dose with liver centrilobular hypertrophy,[1]; wildtype mice,150 mg/kg
same,lowest dose with liver fatty change,[1]; wildtype mice,225 mg/kg
same,starting dose of atrophy and/or necrosis of gastrointestinal epithelium,[1]; wildtype mice,50 mg/kg
same,6TG resistance higher than cells from normal individuals,[2]; T cells from Lesch Nyhan syndrome patients,300 fold
same,6TG resistance greater than normal individuals,[2]; T cells of Hprt deficient brothers without signs of the disease,10 fold
same,ALT,[3]; 25 mg/kg single i.p.,28.7 ± 14.9 u/l
same,AP,[3]; 25 mg/kg single i.p.,78.7 ± 22.5 u/l
same,AST,[3]; 25 mg/kg single i.p.,53.3 ± 17.5 u/l
same,BUN,[3]; 25 mg/kg single i.p.,18.5 ± 0.6 mg/dL
same,CK,[3]; 25 mg/kg single i.p.,67.7 ± 41.2 u/l
same,ALT,[3]; 500 mg/kg single i.p.,14.3 ± 3.5 u/l
same,AP,[3]; 500 mg/kg single i.p.,71.0 ± 38.0 u/l
same,AST,[3]; 500 mg/kg single i.p.,50. ± 11.8 u/l
same,BUN,[3]; 500 mg/kg single i.p.,18.0 ± 1.0 mg/dL
same,CK,[3]; 500 mg/kg single i.p.,52.0 ± 23.3 u/l
same,ALT,[3]; 720 mg/kg single i.p.,13.7 ± 1.5 u/l
same,AP,[3]; 720 mg/kg single i.p.,78.7 ± 20.5 u/l
same,AST,[3]; 720 mg/kg single i.p.,43.3 ± 14.0 u/l
same,BUN,[3]; 720 mg/kg single i.p.,20.0 ± 2.7 mg/dL
same,CK,[3]; 720 mg/kg single i.p.,37.3 ± 11.6 u/l
